Assay results: patent US9815796B2 (Merck Sharp & Dohme Corp., priority 2013, dated 2017)
Where two headings read alike, the source gives them in different places.

Key:
[1] = target: Rhesus PDE2A3 (Macaca mulatta, UniProt B3VTJ2); test: PDE2 fluorescence polarization (IMAP FP) inhibition assay, rhesus enzyme; type: biochemical, rhesus macaque
Procedure, shortened: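 IMAP FP (mP from parallel and perpendicular fluorescence against substrate-only control) was read ≥1 h after adding binding reagent. The preceding 60 min room-temperature reaction contained FAM-cAMP (50 nM) and cGMP (1 uM) in pH 7.2 Tris buffer with MgCl2 and DTT. Enzyme was supernatant of sonicated AD293 cells expressing rhesus PDE2A3; compounds were 3-fold titrated, DMSO 1% final.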

[2] = target: human PDE2A1 (Homo sapiens (Human), UniProt O00408); test: IMAP FP PDE selectivity panel, human PDE2A1; type: biochemical
Chain of human PDE2A1 (O00408 other isoform, or with tags, fused parts or gaps): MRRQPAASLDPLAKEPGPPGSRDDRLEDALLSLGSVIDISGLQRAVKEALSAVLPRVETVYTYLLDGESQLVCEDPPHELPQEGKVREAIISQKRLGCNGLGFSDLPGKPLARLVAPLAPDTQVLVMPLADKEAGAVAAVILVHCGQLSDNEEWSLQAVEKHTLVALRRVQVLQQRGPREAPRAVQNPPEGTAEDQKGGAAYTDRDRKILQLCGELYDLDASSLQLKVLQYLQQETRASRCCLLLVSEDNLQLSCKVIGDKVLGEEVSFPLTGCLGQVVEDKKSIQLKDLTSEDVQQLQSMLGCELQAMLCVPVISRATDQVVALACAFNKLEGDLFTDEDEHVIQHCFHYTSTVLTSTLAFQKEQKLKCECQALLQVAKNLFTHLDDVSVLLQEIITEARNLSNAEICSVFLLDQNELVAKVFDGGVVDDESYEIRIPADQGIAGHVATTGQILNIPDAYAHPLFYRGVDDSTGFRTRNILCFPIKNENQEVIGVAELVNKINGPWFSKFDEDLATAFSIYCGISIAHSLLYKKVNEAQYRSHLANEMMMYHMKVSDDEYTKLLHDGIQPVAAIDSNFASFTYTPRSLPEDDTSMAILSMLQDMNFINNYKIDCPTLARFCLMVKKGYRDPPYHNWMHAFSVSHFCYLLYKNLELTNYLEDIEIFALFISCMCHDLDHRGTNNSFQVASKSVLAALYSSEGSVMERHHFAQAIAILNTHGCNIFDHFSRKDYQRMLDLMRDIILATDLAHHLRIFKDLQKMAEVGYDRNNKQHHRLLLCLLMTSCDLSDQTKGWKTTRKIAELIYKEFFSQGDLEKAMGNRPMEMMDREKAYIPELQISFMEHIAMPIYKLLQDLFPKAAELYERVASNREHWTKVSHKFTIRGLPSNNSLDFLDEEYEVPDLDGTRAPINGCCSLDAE
Procedure, shortened: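 IMAP FP format: substrate 50 nM FAM-cAMP plus 1000 nM cGMP, enzyme (insect-cell GST-tagged human PDE2A1) at ~20% conversion, 60 min reaction at room temperature. Apparent inhibition constants calculated from parallel/perpendicular fluorescence with KM 10,000 nM.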

[3] = Rhesus PDE2, Lab B, read-out: Rhesus PDE2 Ki (nM) - Lab B
[4] = Human PDE2, Lab B, read-out: Human PDE2 Ki (nM) - Lab B
[5] = Rhesus PDE2, Lab A, read-out: Rhesus PDE2 Ki (nM) - Lab A
[6] = Human PDE2, Lab A, read-out: Human PDE2 Ki (nM) - Lab A

Chain of Rhesus PDE2A3 (B3VTJ2 1-941): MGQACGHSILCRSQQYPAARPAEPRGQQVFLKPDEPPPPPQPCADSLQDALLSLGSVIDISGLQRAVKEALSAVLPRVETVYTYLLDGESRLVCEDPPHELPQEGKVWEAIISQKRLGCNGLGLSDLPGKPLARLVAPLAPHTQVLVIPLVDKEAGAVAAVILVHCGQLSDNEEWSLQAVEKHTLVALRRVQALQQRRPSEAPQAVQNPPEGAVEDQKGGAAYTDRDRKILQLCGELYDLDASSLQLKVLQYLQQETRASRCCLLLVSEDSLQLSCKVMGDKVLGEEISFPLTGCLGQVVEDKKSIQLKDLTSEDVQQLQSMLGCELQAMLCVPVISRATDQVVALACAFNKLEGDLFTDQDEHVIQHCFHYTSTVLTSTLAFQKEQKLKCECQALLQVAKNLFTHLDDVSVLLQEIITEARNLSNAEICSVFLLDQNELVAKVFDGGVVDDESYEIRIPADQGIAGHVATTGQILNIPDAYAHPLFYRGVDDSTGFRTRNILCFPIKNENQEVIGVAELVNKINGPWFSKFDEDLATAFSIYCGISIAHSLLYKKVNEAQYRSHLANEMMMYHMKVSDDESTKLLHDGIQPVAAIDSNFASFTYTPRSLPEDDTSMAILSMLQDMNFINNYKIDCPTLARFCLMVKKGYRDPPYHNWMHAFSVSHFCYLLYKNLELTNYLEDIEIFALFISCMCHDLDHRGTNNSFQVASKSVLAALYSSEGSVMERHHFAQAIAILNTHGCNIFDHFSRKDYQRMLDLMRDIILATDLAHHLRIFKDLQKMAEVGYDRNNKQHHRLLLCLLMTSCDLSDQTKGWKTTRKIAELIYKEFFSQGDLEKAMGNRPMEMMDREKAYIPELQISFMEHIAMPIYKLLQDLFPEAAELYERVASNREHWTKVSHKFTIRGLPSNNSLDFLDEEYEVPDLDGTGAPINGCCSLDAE

Row | SMILES | Ki [1, 3] | Ki [2, 4] | Ki [1, 5] | Ki [2, 6]
1 | COc1ccc(C(C)(C)c2nc(C(=O)N[C@@H](c3ccc(OC(F)(F)F)c(F)c3)C(C)C)cc(=O)[nH]2)cc1 [Example 492, N-{(1R)-1-[3-fluoro-4-(trifluoromethoxy)phenyl]-2-methylpropyl}-2-[1-(4-methoxyphenyl)-1-methylethyl]-6-oxo-1,6-dihydropyrimidine-4-carboxamide] | 42 nM | 29 nM |  | 
2 | C[C@@H](NC(=O)c1cc(=O)[nH]c(-c2ccccc2)n1)c1ccc(C(F)(F)F)cc1F [Example 150, N-{(1R)-1-[2-fluoro-4-(trifluoromethyl)phenyl]ethyl}-6-oxo-2-phenyl-1,6-dihydropyrimidine-4-carboxamide] |  |  | 29 nM | 15 nM
3 | O=C(N[C@@H](c1ccc(OC(F)(F)F)c(F)c1)C1CC1)c1cc(=O)[nH]c(C2CC2)n1 [Example 212] |  |  | 6.1 nM | 2.6 nM
4 | O=C(N[C@@H](c1ccc(C2CC2)cc1)C1CC1)c1cc(=O)[nH]c(-c2ncccn2)n1 [Example 453, N-[(R)-cyclopropyl(4-cyclopropylphenyl)methyl]-6-oxo-1,6-dihydro-2,2′-bipyrimidine-4-carboxamide] | 7.3 nM | 7.6 nM |  | 
5 | O=C(N[C@H](CC(F)(F)F)c1ccc(C(F)(F)F)cc1)c1cc(=O)[nH]c(-c2ccccc2)n1 [Example 353, 6-oxo-2-phenyl-N-{(1R)-3,3,3-trifluoro-1-[4-(trifluoromethyl)phenyl]propyl}-1,6-dihydropyrimidine-4-carboxamide] | 23 nM | 21 nM | ~9.2 nM | 
6 | CC(C)[C@@H](NC(=O)c1cc(=O)[nH]c(-c2ncccn2)n1)c1ccc(S(F)(F)(F)(F)F)cc1 [Example 265, N-{(1R)-2-methyl-1-[4-(pentafluoro-λ^6-sulfanyl)phenyl]propyl}-6-oxo-1,6-dihydro-2,2′-bipyrimidine-4-carboxamide] | 1.6 nM | 1.5 nM | 1.2 nM | 
7 | O=C(NC(CO)c1ccc(C(F)(F)F)cc1)c1cc(=O)[nH]c(-c2ccccc2)n1 (centres unmarked) [Example 185, N-{2-hydroxy-1-[4-(trifluoromethyl)phenyl]ethyl}-6-oxo-2-phenyl-1,6-dihydropyrimidine-4-carboxamide] |  |  | 13 nM | 9.7 nM
8 | CC[C@@H](NC(=O)c1cc(=O)[nH]c(-c2ccccc2)n1)c1ccc(S(F)(F)(F)(F)F)cc1 [Example 386, 6-oxo-N-{(1R)-1-[4-(pentafluoro-λ^6-sulfanyl)phenyl]propyl}-2-phenyl-1,6-dihydropyrimidine-4-carboxamide] | 8.1 nM | 6.5 nM |  | 
9 | COc1ccc(Cc2nc(C(=O)N[C@@H](c3ccc(OC(F)(F)F)c(F)c3)C(C)C)cc(=O)[nH]2)cc1F [Example 515, 2-(3-fluoro-4-methoxybenzyl)-N-{(1R)-1-[3-fluoro-4-(trifluoromethoxy)phenyl]-2-methylpropyl}-6-oxo-1,6-dihydropyrimidine-4-carboxamide] | 1.1 nM | 1 nM |  | 
10 | O=C(NC1(c2ccc(OC(F)(F)F)cc2)CCC1)c1cc(=O)[nH]c(-c2ccccc2)n1 [Example 282] |  |  | 124 nM | 61 nM
11 | CC1(c2ccc(C(NC(=O)c3cc(=O)[nH]c(-c4ncccn4)n3)C(C)(C)C)cc2F)CC1 (single isomer, unassigned) [Example 717, (R)- or (S)-N-(1-(3-fluoro-4-(1-methylcyclopropyl)phenyl)-2,2-dimethylpropyl)-6-oxo-1,6-dihydro-[2,2′-bipyrimidine]-4-carboxamide] | 17 nM | 14 nM |  | 
12 | Cc1nc(C(=O)N[C@H](C)c2ccc(OC(F)F)cc2)cc(=O)[nH]1 [Example 304, (R)-N-(1-(4-(difluoromethoxy)phenyl)ethyl)-2-methyl-6-oxo-1,6-dihydropyrimidine-4-carboxamide] |  |  | 91 nM | 76 nM
13 | Cc1nc(C(=O)N[C@@H](c2ccc(OC(F)F)cc2)C(C)(C)C)cc(=O)[nH]1 [Example 62, (R)-N-(1-(4-(difluoromethoxy)phenyl)-2,2-dimethylpropyl)-2-methyl-6-oxo-1,6-dihydropyrimidine-4-carboxamide] | 9.8 nM | 8.3 nM |  | 
14 | Cc1cc([C@@H](C)NC(=O)c2cc(=O)[nH]c(C3CC3)n2)ccc1C(F)(F)F [Example 231, 2-cyclopropyl-N-{(1R)-1-[3-methyl-4-(trifluoromethyl)phenyl]ethyl}-6-oxo-1,6-dihydropyrimidine-4-carboxamide] |  |  | 39 nM | 23 nM
15 | CC(C)(C)[C@@H](NC(=O)c1cc(=O)[nH]c(C2CC2)n1)c1ccc(OC(F)F)cc1 [Example 436, 2-cyclopropyl-N-{(1R)-1-[4-(difluoromethoxy)phenyl]-2,2-dimethylpropyl}-6-oxo-1,6-dihydropyrimidine-4-carboxamide] | 3.5 nM | 3.2 nM |  | 
16 | C[C@@H](NC(=O)c1cc(=O)[nH]c(Cc2ccccc2)n1)c1ccc(C(F)(F)F)cc1 [Example 133, 2-benzyl-6-oxo-N-{(1R)-1-[4-(trifluoromethyl)phenyl]ethyl}-1,6-dihydropyrimidine-4-carboxamide] |  |  | 21 nM | 20 nM
17 | COc1ccc(Cc2nc(C(=O)N[C@@H](c3ccc(SC(F)(F)F)cc3)C3CC3)cc(=O)[nH]2)cc1F [Example 523, N-[(R)-cyclopropyl{4-[(trifluoromethyl)sulfanyl]phenyl}methyl]-2-(3-fluoro-4-methoxybenzyl)-6-oxo-1,6-dihydropyrimidine-4-carboxamide] | 2.8 nM | 2.1 nM |  | 
18 | O=C(NC(c1ccc(C(F)(F)F)cc1)C(F)(F)F)c1cc(=O)[nH]c(-c2ccccc2)n1 (centres unmarked) [Example 393, 6-oxo-2-phenyl-N-{2,2,2-trifluoro-1-[4-(trifluoromethyl)phenyl]ethyl}-1,6-dihydropyrimidine-4-carboxamide] | 55 nM | 49 nM |  | 
19 | CC(C)(C)[C@@H](NC(=O)c1cc(=O)[nH]c(-c2ccccc2)n1)c1ccc(OC(F)(F)F)cc1 [Example 462, N-{(1R)-2,2-dimethyl-1-[4-(trifluoromethoxy)phenyl]propyl}-6-oxo-2-phenyl-1,6-dihydropyrimidine-4-carboxamide] | 1.4 nM | 1.5 nM |  | 
20 | CC(NC(=O)c1cc(=O)[nH]c(-c2ncccn2)n1)c1ccc(C2CC2)cc1 (centres unmarked) [Example 83, N-[1-(4-cyclopropylphenyl)ethyl]-6-oxo-1,6-dihydro-2,2′-bipyrimidine-4-carboxamide] | 26 nM | 27 nM | 21 nM | ~5.4 nM
21 | Cc1nc(C(=O)N[C@@H](c2ccc(S(F)(F)(F)(F)F)cc2)C2(C)CC2)cc(=O)[nH]1 [Example 424, 2-methyl-N-{(R)-(1-methylcyclopropyl)[4-(pentafluoro-λ^6-sulfanyl)phenyl]methyl}-6-oxo-1,6-dihydropyrimidine-4-carboxamide] | 7.2 nM | 9.2 nM |  | 
22 | C[C@@H](NC(=O)c1cc(=O)[nH]c(C2CC2)n1)c1ccc(C(F)(F)F)cc1 [Example 11, 2-cyclopropyl-6-oxo-N-{(1R)-1-[4-(trifluoromethyl)phenyl]ethyl}-1,6-dihydropyrimidine-4-carboxamide] |  |  | 21 nM | 16 nM
23 | CCc1c(C(=O)N[C@H](C)c2ccc(C(F)(F)F)cc2)nc[nH]c1=O [Example 332, (R)-5-ethyl-6-oxo-N-(1-(4-(trifluoromethyl)phenyl)ethyl)-1,6-dihydropyrimidine-4-carboxamide] |  |  | 2900 nM | 2270 nM
24 | COc1ccc2cc(C(C)NC(=O)c3cc(=O)[nH]c(C)n3)ccc2c1 (single isomer, unassigned) [Example 313, (R)- or (S)-N-[1-(6-methoxynaphthalen-2-yl)ethyl]-2-methyl-6-oxo-1,6-dihydropyrimidine-4-carboxamide] |  |  | 51 nM | 54 nM
25 | COCc1nc(C(=O)N[C@@H](c2ccc(C(F)(F)F)cc2)C2CC2)cc(=O)[nH]1 [Example 118, N-{(R)-cyclopropyl[4-(trifluoromethyl)phenyl]methyl}-2-(methoxymethyl)-6-oxo-1,6-dihydropyrimidine-4-carboxamide] |  |  | 76 nM | 18 nM
26 | COCc1nc(C(=O)N[C@@H](c2ccc(SC(F)(F)F)cc2)C(C)C)cc(=O)[nH]1 [Example 120, 2-(methoxymethyl)-N-[(1R)-2-methyl-1-{4-[(trifluoromethyl)sulfanyl]phenyl}propyl]-6-oxo-1,6-dihydropyrimidine-4-carboxamide] |  |  | 8.7 nM | 4.2 nM
27 | CC(C)[C@@H](NC(=O)c1cc(=O)[nH]c(C2CC2)n1)c1ccc(C(F)(F)F)cc1 [Example 193, 2-cyclopropyl-N-{(1R)-2-methyl-1-[4-(trifluoromethyl)phenyl]propyl}-6-oxo-1,6-dihydropyrimidine-4-carboxamide] |  |  | 3.9 nM | 1.3 nM
28 | C[C@@H](NC(=O)c1cc(=O)[nH]c(-c2ccccc2)n1)c1ccc(OC(F)(F)F)cc1 [Example 275, 6-oxo-2-phenyl-N-{(1R)-1-[4-(trifluoromethoxy)phenyl]ethyl}-1,6-dihydropyrimidine-4-carboxamide] |  |  | 4.5 nM | 3 nM
29 | O=C(NC1(c2ccc(C(F)(F)F)cc2)CC1)c1cc(=O)[nH]c(C2CC2)n1 [Example 292, 2-cyclopropyl-6-oxo-N-{1-[4-(trifluoromethyl)phenyl]cyclopropyl}-1,6-dihydropyrimidine-4-carboxamide] |  |  | 14 nM | 12 nM
